{"source": "patent US20030069194A1", "about": "“Inhibition of viral replication by targeting RNA-DNA complexes” (priority 2001, published 2003)", "key": {"18C-18D duplex": {"system": "18C-18D duplex", "experiment": "UV melting (thermal denaturation) and ΔTm analysis, 18C-18D duplex", "type": "binding, HIV-1", "conditions": "for Ka (ΔTm-derived association constant): extrapolated to 25° C.; for enhancement of thermal stability of the duplex (ΔTm): 18C-18D, drug to duplex ratio (rdup) 3.0, FIG. 3b", "protocol": "(§1) All UV absorbance experiments were conducted on an AVIV Model 14DS Spectrophotometer (Aviv Associates; Lakewood, N.J.) equipped with a thermoelectrically controlled cell holder. A quartz cell with a 1 cm pathlength was used for all the absorbance studies. Absorbance versus temperature profiles were measured at 274 nm with a 6 sec averaging time. The temperature was raised in 0.5° C. increments, and the samples were allowed to equilibrate for 1 min at each temperature setting. In these thermal denaturation studies, 18C-18R and 18C-18D solutions were […] in duplex and contained aminoglycoside at concentrations ranging from 0 to 12 μM. The duplex solutions were preheated for 5 min at 85° C. and then cooled to room temperature prior to addition of the drug. The buffer solutions for the UV melting experiments contained 10 mM PIPES (pH 6.0) and 5 mM MgCl2. For each optically detected transition, the melting temperature (Tm) was determined. Marky, L. A. & Breslauer, K. J. Calculating thermodynamic data for transitions of any molecularity from equilibrium melting curves, Biopolymers 26, 1601-1620 (1987).\n(§2) The ΔTm method described below was used to derive aminoglycoside-duplex association constants (Ka). Measured aminoglycoside-induced changes in the thermal stability of the host duplexes (FIG. 3) were used to estimate the apparent drug-duplex association constants at Tm (KTm) from the following expression (Crothers, D. M. Statistical thermodynamics of nucleic acid melting transitions with coupled binding equilibria, Biopolymers 10, 2147-2160 (1971)): [formula]\n(§3) In this expression, TmO and Tm are the melting temperatures of the drug-free and drug-bound duplex, respectively, n is the number of drug molecules bound per duplex, ΔHdup is the enthalpy change for the melting of the duplex in the absence of bound drug, and L is the free drug concentration at Tm (which can be estimated by one half the total drug concentration). Values of ΔHdup for the 18C-18R and 18C-18D duplexes were determined from the shapes of their UV melting profiles using the following relationship (Marky, L. A. & Breslauer, K. J. Calculating thermodynamic data for transitions of any molecularity from equilibrium melting curves, Biopolymers 26, 1601-1620 (1987)): [formula]\n(§4) where α is the fraction of single strand. This calculation yielded ΔHdup values of 157.8 kcal/mol for the 18C-18R duplex and 130.3 kcal/mol for the 18C-18D duplex. For meaningful comparisons, the calculated apparent binding constants at Tm should be extrapolated to a common reference temperature using the standard relationship: [formula]\n(§5) where ΔHb is the enthalpy of drug binding."}, "18C-18R duplex": {"system": "18C-18R duplex", "experiment": "UV melting (thermal denaturation) and ΔTm analysis, 18C-18R duplex", "type": "binding, HIV-1", "conditions": "for Ka (ΔTm-derived association constant): extrapolated to 25° C.; for greater affinity for the 18C-18R duplex than for the 18C-18D duplex: 18C-18R versus 18C-18D; for enhancement of thermal stability of the duplex (ΔTm): 18C-18R, drug to duplex ratio (rdup) 3.0, FIG. 3a", "protocol": "as §1, §2, §3, §4, §5"}, "[1]": {"system": "18C-18R duplex (RNase H substrate of HIV-1 RT)", "experiment": "RT-induced RNase H cleavage of the 18C-18R duplex (gel assay)", "type": "biochemical", "conditions": "for hierarchy of the extent of inhibition of RT-induced cleavage: 18C-18R duplex, aminoglycosides 312.5 μM, FIG. 1b, 1d; for inhibition of RT-induced cleavage at the primary site: FIG. 1c", "source_text": "The first model oligonucleotide was a 18mer chimeric duplex (18C-18R). 18C-18R mimics a RNase H substrate during minus-strand strong-stop synthesis. (FIG. 1a). Mueller, U. et al. Crystal structure of an eight-base pair duplex containing the 3′-DNA RNA-5′ junction formed during initiation of minus-strand synthesis of HIV replication, Biochemistry 37,12005-12011 (1998). […] Note that RT cleaves the RNA strand (18R) opposite the chimeric RNA-DNA strand (18C) at three sites (FIGS. 1a, b). The primary cleavage site lies between base positions +1 and +2 (counting from the RNA-DNA junction in the 5′ direction on the cleaved RNA strand). Two other minor cleavage sites lie between positions +3 and +4 and between positions −1 and +1, with the former site being cleaved to a greater extent than the latter site. Götte, M. et al., HIV-1 Reverse transcriptase-associated RNase H cleaves RNA/RNA in arrested complexes: Implications for the mechanism by which RNase H discriminates between RNA/RNA and RNA/DNA, EMBO J. 14, 833-841 (1995).\nRecombinant HIV-1 RT p66 was isolated from Escherichia coli JM 109. Pandey, V. N. et al, Role of methionine 184 of human immunodeficiency virus type-1 reverse transcriptase in the polymerase function and fidelity of DNA synthesis, Biochemistry 35, 2168-2179 (1996). The 18C and 18R oligonucleotides were purchased from Dharmacon Research, Inc. (Lafayette, Colo.). The 18D oligonucleotide was obtained from Integrated DNA Technologies, Inc. (Coralville, Iowa). Neomycin trisulfate trihydrate, the free base of tobramycin, paromomycin sulfate, and kanamycin B sulfate were obtained from Fluka, while kanamycin A monosulfate and ribostamycin sulfate dihydrate were obtained from Sigma.\nThe RNase H activity of RT was assayed in a 10 μl reaction mixture containing 10 mM PIPES (pH 6.0) and 5 mM MgCl2. Ten pmol of either 18C or 18R were ^32P-labeled at the 5′ end using T4 polynucleotide kinase. For the cleavage experiments, different aminoglycosides were mixed with 0.5 μM of target duplex. A small amount of RT, 0.1 μg, was then added to initiate the cleavage reaction. After incubation at 37° C. for 30 min, the reaction was stopped by addition of 3 M urea containing a mixture of bromophenol blue and xylene cyanol. Denaturation of the 18C-18R duplex required the addition of 5 M urea as well as heating at 95° C. for 5 min prior to gel loading. The cleavage products were resolved in a 10% polyacrylamide gel containing 8 M urea. The gels were subsequently analyzed using a phosphoimager (Molecular Dynamics, Inc.)."}, "HIV-1": {"system": "HIV-1", "conditions": "chronically infected cells; Zapp et al., Cell 74 (1993); cited from earlier work"}}, "note": "“And” between values parts separate entries of the source, which are not always exact repeats. Equal values may be shown once. Where a name gives a salt, the structure may show the parent alone.", "data": [{"compound": "NC[C@@H]1O[C@H](O[C@H]2[C@@H](O)[C@H](O[C@@H]3[C@@H](O)[C@H](N)C[C@H](N)[C@H]3O[C@H]3O[C@H](CO)[C@@H](O)[C@H](O)[C@H]3N)O[C@@H]2CO)[C@H](N)[C@@H](O)[C@@H]1O", "note": "[paromomycin, paromomycin sulfate]", "values": [{"measurement": "Ka (ΔTm-derived association constant)", "setting": "18C-18D duplex; 18C-18D duplex", "result": "(1.9 ± 0.8) × 10^5 M^−1"}, {"measurement": "enhancement of thermal stability of the duplex (ΔTm)", "setting": "18C-18D duplex", "result": 1.1, "unit": "°C"}, {"measurement": "Ka (ΔTm-derived association constant)", "setting": "18C-18R duplex; 18C-18R duplex", "result": "(4.3 ± 1.6) × 10^5 M^−1"}, {"measurement": "greater affinity for the 18C-18R duplex than for the 18C-18D duplex", "setting": "18C-18R duplex", "result": 2, "unit": "fold"}, {"measurement": "enhancement of thermal stability of the duplex (ΔTm)", "setting": "18C-18R duplex", "result": 1.4, "unit": "°C"}, {"measurement": "hierarchy of the extent of inhibition of RT-induced cleavage", "setting": "[1]", "result": "neomycin>paromomycin>tobramycin>kanamycin B>ribostamycin>>kanamycin A"}]}, {"compound": "Neomycin trisulfate trihydrate", "values": [{"measurement": "difference in affinity, neomycin greater than paromomycin", "setting": "18C-18D duplex; 18C-18D duplex", "result": 9, "unit": "fold"}, {"measurement": "Ka (ΔTm-derived association constant)", "setting": "18C-18D duplex; 18C-18D duplex", "result": "(1.7 ± 0.3) × 10^6 M^−1"}, {"measurement": "enhancement of thermal stability of the duplex (ΔTm)", "setting": "18C-18D duplex", "result": 4.1, "unit": "°C"}, {"measurement": "inhibition of HIV-1 production", "setting": "HIV-1", "result": "inhibit HIV-1 production in chronically infected cells"}, {"measurement": "difference in affinity, neomycin greater than paromomycin", "setting": "18C-18R duplex; 18C-18R duplex", "result": 20, "unit": "fold"}, {"measurement": "Ka (ΔTm-derived association constant)", "setting": "18C-18R duplex; 18C-18R duplex", "result": "(8.6 ± 1.5) × 10^6 M^−1"}, {"measurement": "greater affinity for the 18C-18R duplex than for the 18C-18D duplex", "setting": "18C-18R duplex; trisulfate trihydrate", "result": "≈ 5 fold and 5 fold"}, {"measurement": "enhancement of thermal stability of the duplex (ΔTm)", "setting": "18C-18R duplex", "result": 4.8, "unit": "°C"}, {"measurement": "hierarchy of the extent of inhibition of RT-induced cleavage", "setting": "[1]", "result": "neomycin>paromomycin>tobramycin>kanamycin B>ribostamycin>>kanamycin A"}, {"measurement": "inhibition of RT-induced cleavage at the primary site", "setting": "[1]; neomycin to binding site ratio of 1 (stoichiometric concentration)", "result": 80, "unit": "%"}, {"measurement": "inhibition of RT-induced cleavage at the primary site", "setting": "[1]; neomycin to binding site ratio of 5", "result": "total inhibition"}]}]}
